{
  "source": "paper PMC7481357",
  "about": "“N-terminal Myristoylation Enhanced the Antimicrobial Activity of Antimicrobial Peptide PMAP-36PW” (Frontiers in Cellular and Infection Microbiology, 2020)",
  "key": {"[1]": {"test_system": "S. aureus ATCC 25923, S. typhimurium SL 1344, and P. aeruginosa GIM 1.551", "experiment": "Biofilm eradication assay (crystal violet and colony count)", "format": "cell-based", "details": "128 μg/mL, n = 5", "description": "The biofilm-eradicating ability of Myr-36PW was determined against S. aureus ATCC 25923, S. typhimurium SL 1344, and P. aeruginosa GIM 1.551 (Chen et al., [2018]; de Breij et al., [2018]). In brief, 200 μL of bacterial dilution (1 × 10^6 CFU/mL) was added into a 96-well plate and incubated for 24 h at 37°C to form a biofilm, which was washed three times with PBS. Subsequently, 200 μL of peptides at 128 μg/mL were added to the wells. After incubation for 1 h at 37°C, the OD of each well was measured at 620 nm by crystal violet staining. The wells were gently washed three times with PBS after 1 h incubation to evaluate the killing effect of Myr-36PW against bacteria in the biofilm. Afterward, 100 μL of suspension was serially diluted and spread on LB agar plates, and bacterial colony was measured.\nFigure 6 Biofilm inhibition and eradication of Myr-36PW. (A–C) Inhibition of biofilm formation by Myr-36PW. (D) Eradication of preformed biofilm by Myr-36PW. (E) Killing effect of Myr-36PW against biofilm bacteria. Inhibition rate % = [1 – OD620 nm(peptides)/OD620 nm(bacteria)] × 100%. Biofilm mass % = OD620 nm(peptides)/OD620 nm(control) × 100%. The control group was bacterial culture without peptides. Data represent the mean ± SD (n = 5)."}, "S. aureus ATCC 25923": {"test_system": "S. aureus ATCC 25923", "format": "cell-based, Staphylococcus aureus", "details": "ATCC 25923, 1 h", "description": "The effects of abiotic factors on the antibacterial activity of Myr-36PW were investigated by MIC assay (Xi et al., [2013]; Zhong et al., [2019]). S. aureus ATCC 25923 and P. aeruginosa GIM 1.551 overnight cultures were diluted to 1 × 10^6 CFU/mL, and the MICs of peptides in MHB with different concentration of physiological salts (150 mM NaCL, 2 mM CaCL2) were determined. And after the peptides incubated in 10% mice serum for 1 h at 37°C, MICs of peptides against S. aureus ATCC 25923 and P. aeruginosa GIM 1.551 were determined. The MICs in MHB in the absence of physiological salts and serum were used as the control group.\nSalt and serum stability in vitro were indicated by MIC assay. The concentrations of NaCl and CaCl2 were physiological concentration. 10% mice serum was inactivated by heat treatment for 15 min at 60 ℃。The control group was measured in the absence of physiological salts or serum in MHB."}, "P. aeruginosa GIM 1.551": {"test_system": "P. aeruginosa GIM 1.551", "experiment": "Pneumonia (lung infection) model", "format": "in vivo, BALB/c mice", "details": "intranasal 40 μL, 1 μg/μL, once a day for 3 days", "description": "A pneumonia model in vivo was established as previously reported, with minor modification (Cortés et al., [2002]; Aoki et al., [2009]; Shi et al., [2018]). A total of 120 mice were randomly divided into two experimental models, one was intranasal inoculation of S. aureus ATCC 25923 (8.3 × 10^9 CFU/mL, 50 μL), and the other was intranasal inoculation of P. aeruginosa GIM 1.551 (4.5 × 10^10 CFU/mL, 50 μL). In the S. aureus ATCC 25923 model, 60 mice were divided into the following six groups of 10 mice each: no infection and treatment was used as a blank control, those with intranasal administration of PBS (40 μL) as the negative control group, those administered with benzylpenicillin potassium (40 μL, 1 μg/μL) as the positive control group, and the remaining three corresponded to Myr-36PW (40 μL, 1 μg/μL), PMAP-36PW (40 μL, 1 μg/μL), and PMAP-36 groups (40 μL, 1 μg/μL). The procedure for P. aeruginosa GIM 1.551 model is the same as for S. aureus ATCC 25923 model, except for the use of ampicillin sodium as the positive control. After 4 h post-inoculation, treatment was initiated, once a day for 3 days. The mice were sacrificed 24 h after the treatment. Changes in the appearance of lung tissues were observed, and lung tissues were removed aseptically from the mice. Half of the removed lung tissues were gently fixed in buffered formaldehyde solution for histopathological assessment by hematoxylin and eosin (H&E) staining. Pathological changes were scored to provide individual therapeutic status as described previously (Lei et al., [2018]). The remaining lung tissues were added with 1 mL of PBS, homogenized, and serially diluted. Bacterial CFU counts were determined.\nFigure 8 Therapeutic effect for pneumonia by Myr-36PW in vivo. Mice were injected with S. aureus ATCC 25923 or P. aeruginosa GIM 1.551 to form pneumonia, and lungs (n = 5) in each group were collected on day 4 after intranasal bacterial inoculation. (A) Morphological changes of lung tissues. (B) Representative histopathological images of processed lung section with hematoxylin and eosin (H&E) staining. Images are presented at a magnification of 20×. a: inflammatory cell infiltration. b: the alveolar wall is thickened. c: alveolar wall congestion or alveolar hemorrhage. (C,D) Pathological scores of the lung sections. Scoring standard: 1 indicated no pathology, 2 indicated local pulmonary congestion and inflammatory cell infiltration, 3 indicated pulmonary congestion and a large number of inflammatory cell infiltration, affecting <20% of the section, 4 indicated pulmonary congestion and a large number of inflammatory cell infiltration, affecting 20–50% of the section, and 5 indicated pulmonary congestion and a large number of inflammatory cell infiltration, affecting >50% of the section. (E,F) Bacterial CFU in lung homogenate. BP is benzylpenicillin potassium, AS is ampicillin sodium. Data represent the mean ± SD of five individual experiments."}, "[2]": {"test_system": "L. monocytogenes CICC 21634", "experiment": "Inhibition zone assay (disk diffusion)", "format": "cell-based, Listeria monocytogenes", "set-up": "key: +, means the peptide has antibacterial activity", "details": "disk 10 μg peptide, 18 h at 37°C, * P < 0.05, ** P < 0.01 vs PMAP-36PW", "description": "The inhibition zone assay was performed through the disk diffusion to evaluate the antimicrobial activity of Myr-36PW in vitro (Dunne et al., [2017]). The four above-mentioned bacterial strains were used as experimental strains, with L. monocytogenes CICC 21634 cultured in BHI medium, and P. aeruginosa GIM 1.551 cultured in TSB medium. The bacterial cells were cultured for 12 h at 37°C in the appropriate medium, and the bacterial cell suspension was spread on LB agar. The disks containing 10 μg of peptides (1 μg/μL) were attached to the solid medium and incubated at 37°C for 18 h. Finally the diameter of the inhibition zone was measured."}},
  "note": "Residues, ends and D or L forms follow the SMILES beside them. *: point of attachment. Myristoyl = CCCCCCCCCCCCCC(=O)*",
  "data": [
    {"smiles": "CCCCCCCCCCCCCC(=O)NCC(=O)NCC(=O)N[C@@H](CCCNC(=N)N)C(=O)N[C@@H](Cc1ccccc1)C(=O)N[C@@H](CCCNC(=N)N)C(=O)N[C@@H](CCCNC(=N)N)C(=O)N[C@@H](CC(C)C)C(=O)N[C@@H](CCCNC(=N)N)C(=O)N[C@@H](CCCCN)C(=O)N[C@@H](CCCCN)C(=O)N[C@H](C(=O)N[C@@H](CCCNC(=N)N)C(=O)N[C@@H](CCCCN)C(=O)N[C@@H](CCCNC(=N)N)C(=O)N[C@@H](CC(C)C)C(=O)N[C@@H](CCCCN)C(=O)N[C@@H](CCCCN)C(=O)N[C@H](C(=O)NCC(=O)N[C@@H](CCCCN)C(=O)N[C@H](C(=O)N[C@@H](CC(C)C)C(=O)N[C@@H](CCCCN)C(=O)N[C@@H](Cc1c[nH]c2ccccc12)C(=O)N[C@H](C(=O)N[C@@H](Cc1c[nH]c2ccccc12)C(=O)N[C@@H](Cc1c[nH]c2ccccc12)C(=O)N[C@H](C(=O)N[C@H](C(=O)NCC(=O)N[C@@H](CO)C(=O)N[C@H](C(=O)N1CCC[C@H]1C(=O)N[C@@H](CC(C)C)C(=O)NCC(=O)N[C@@H](CS)C(=O)NCC(=O)O)[C@@H](C)CC)C(C)C)[C@@H](C)CC)[C@@H](C)CC)C(C)C)[C@@H](C)CC)[C@@H](C)O", "note": "[Myr-36PW] (Myristoyl-GGRFRRLRKKTRKRLKKIGKVLKWIWWIVGSIPLGCG-OH; C-terminus assumed)", "values": [
      {"measurement": "Eradication of preformed biofilm", "setting": "[1]; 1 h at 37°C on 24 h biofilm, crystal violet OD 620 nm", "result": "only eradicated the preformed biofilm in Gram-negative bacteria"},
      {"measurement": "Killing effect against biofilm bacteria", "setting": "[1]; 1 h at 37°C, colony count", "result": "bacterial killing effect except against S. aureus ATCC 25923"},
      {"measurement": "MICs, Control", "setting": "S. aureus ATCC 25923", "result": 0.0156, "unit": "µg/mL"},
      {"measurement": "MICs, Serum", "setting": "S. aureus ATCC 25923", "result": 0.0313, "unit": "µg/mL"},
      {"measurement": "Lung histopathology (H&E)", "setting": "P. aeruginosa GIM 1.551", "result": "a complete alveolar structure, reduced blood stasis, and large reduction in inflammatory cells"},
      {"measurement": "Bacterial CFU in lung homogenate", "setting": "P. aeruginosa GIM 1.551; n = 5", "result": "decreased the P. aeruginosa GIM 1.551 CFU level compared with the PMAP-36PW group (P < 0.05)"},
      {"measurement": "Pathological scores of the lung sections", "setting": "P. aeruginosa GIM 1.551; n = 5", "result": "lower scores than PMAP-36PW group (P < 0.05)"},
      {"measurement": "In vitro antibacterial activity (disk diffusion)", "setting": "[2]", "result": "+**"}
    ]}
  ]
}
